In patent US11802133B2, “Heterocyclic compounds as monoacylglycerol lipase inhibitors” (Hoffmann-La Roche Inc., priority 2018, dated 2023):

Molecular target: MAGL (recombinant wild-type) (Homo sapiens (Human), UniProt Q99685)
Test: 4-NPA assay: MAGL inhibitory activity by hydrolysis of 4-nitrophenylacetate (absorbance at 405 nm)
Assay type: biochemical
Conditions: measured in 4-NPA assay (footnote [a]); 1 nM MAGL, 300 μM 4-nitrophenylacetate
Experimental: This assay is hereinafter abbreviated “4-NPA assay”.
The plate was shaked for 1 min at 2000 rpm (Variomag Teleshake) and then incubated for 15 min at RT. […] The final concentrations in the assay were 1 nM MAGL and 300 μM 4-Nitrophenylacetate. […] A second measurement was then done after incubation for 80 min at RT. From the two measurements, the slope was calculated by subtracting the first from the second measurement.

Sequence of MAGL (recombinant wild-type) (Q99685 whole entry, species assumed): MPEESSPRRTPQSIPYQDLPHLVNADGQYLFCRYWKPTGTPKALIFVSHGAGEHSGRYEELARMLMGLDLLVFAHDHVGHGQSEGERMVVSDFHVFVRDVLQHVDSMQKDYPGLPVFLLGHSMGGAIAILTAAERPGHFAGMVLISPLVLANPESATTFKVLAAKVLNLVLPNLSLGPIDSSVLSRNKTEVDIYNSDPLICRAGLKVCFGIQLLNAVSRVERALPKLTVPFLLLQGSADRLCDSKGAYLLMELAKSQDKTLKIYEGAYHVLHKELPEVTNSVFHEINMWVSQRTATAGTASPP

IC50: 3 nM
Structure (SMILES): COc1cc(C(F)(F)F)ccc1COC1CN(C(=O)N2CC[C@@H]3OCC(=O)N[C@@H]3C2)C1 [Example 115]
